Each structure is given as a SMILES string. Read-outs that look alike come from different tables or passages of the source.

One series has as its system CHO K1 cells. As to conditions: reported in one setting; cited from earlier work.
Series [1] deals with S. typhimurium strain TA100. The format is cell-based, Salmonella typhimurium.
The subject of series [2] is S. typhimurium strain TA98. In kind it is cell-based, Salmonella typhimurium.
A short description of series [3]: Distribution of [14C] PrC-210 topically applied to rat skin. As to conditions: for Recovery (carcass) / Recovery (skin) = skin (dose site) + skin wash / Recovery (total): 48 h.
Series [4] in a line: pH and disulfide formation of aqueous PrC-210 solutions. In kind it is physicochemical. As to conditions: for PrC-210 disulfide in solution: aqueous.
Series [5] deals with diploid human fibroblasts. Briefly: Flow cytometry cell-cycle analysis. The format is cell-based.
Series [6] relates to ICR mice. The series is described as follows: Mouse radiation survival assay. The format is in vivo.
Series [7] concerns Sprague-Dawley rat dorsal skin. The series is described as follows: Rat dorsal skin radiodermatitis assay. In kind it is in vivo.
Series [8] deals with ICR mice. Briefly: Mouse aminothiol toxicity assay. The format is in vivo.
Another series concerns rat. The settings on record: rat model, 0.5× mouse MTD; cited from earlier work.
Series [9] relates to diploid human fibroblasts. The series is described as follows: Human cell growth inhibition. The format is cell-based. As to conditions: PrC-210 in medium for 30 h before cell counting.
The conditions of series [10]: cited from earlier work.
The subject of a further series is p21. Briefly: Western blot for p21 expression in nuclear extracts. In kind it is cell-based, human. The settings on record: 4.1 mM PrC-210 for 30 h vs untreated cells. A general note: Immunoblotting shows a protein as a band on a membrane.
In series [11] the test system is supercoiled pUC19 plasmid DNA. The series is described as follows: Protection of plasmid DNA against ROS-induced nicking. In kind it is biochemical. As to conditions: PrC-210 0–70 mM added before hydroxyl radical generating system.
The next series deals with humans. The settings on record: cited from earlier work.
Series [12] has as its system ICR mice. As to conditions: known radioprotectors, value quoted for comparison, no reference given; cited from earlier work.
A further series concerns ferret. As to conditions: ferret model, 0.5× mouse MTD; cited from earlier work.
[13] abbreviates: 87 μM (so in the source), positive control.
Where [14] appears, read: Group 2: 1850 mM dermal, without norepinephrine.
Setting [15] is: Group 3: 1850 mM dermal, with 300 mM norepinephrine.

For the compound `NCCCNCCS` [WR-1065, 2-[(aminopropyl)amino]ethanethiol], the “type of cell cycle block” value in the series with CHO K1 cells is reported as “G2/M cell cycle block”.
`Nc1cccc2cc3ccccc3cc12` [Aminoanthracene, reference compound]: the “Colonies/plate (mean ± SD) Strain TA100 +S9” value in [1] (setting [13]) is listed as 570 ± 90 Colonies/plate. In [2] (setting [13]), the “Colonies/plate (mean ± SD) Strain TA98 +S9” value is on record as 177 Colonies/plate and the “Colonies/plate (mean ± SD) Strain TA98 −S9” value is listed as more than 1800 Colonies/plate.
For `CNCC(CS)CNC` [PrC-210], the “systemic dose after topical application” value in [3] (300 g rats, 1.1 mg absorbed, over 48 h (lowest)) was determined as 3.7 μg/g BW. Moreover, the “estimated mass that crossed the skin barrier and entered systemic circulation” value is 1.1 mg in series [3] (Group 1, over 48 h (16.28 mg × 6.7%)) and 6.8 mg in series [3] (Group 3, over 48 h). Besides, the “Cmax (radioactivity in plasma)” value in series [3] (Group 1: 370 mM dermal, 16.28 mg applied) is 257 ng-eq/g; in series [3] (Group 3: 1850 mM dermal, 81.40 mg applied, with 300 mM norepinephrine) it was 726 ng-eq/g. Also, the entries for the “Recovery (carcass)” value in series [3] (Group 1: 370 mM dermal), in series [3] (setting [14]) and in series [3] (setting [15]) were 0.52%, 1.84% and 1.53%, respectively. In addition, the “Recovery (skin) = skin (dose site) + skin wash” value in [3] (Group 1: 370 mM dermal) worked out at 41.54%; in [3] (setting [14]), 47.16%; in [3] (setting [15]) it was 60.46%. Also, the “Recovery (total)” value was found to be 49.4% in series [3] (Group 1: 370 mM dermal), 66.0% in [3] (setting [14]) and 70.0% in [3] (setting [15]). Moreover, in series [3] (after dermal dose), the “share of absorbed radioactivity eliminated by the urine” value is on record as not below 90%. Also, the “transfer of topically applied PrC-210 into systemic circulation” value in series [3] (over 48 h following topical administration, across groups) is 6–15%. Further, the “14C cpm in blood remaining soluble after TCA precipitation” value in [3] (rat blood samples, preliminary analysis (not shown)) is given as “less than 10%”. In addition, the “Colonies/plate (mean ± SD) Strain TA100 +S9” value is 119 Colonies/plate in [1] (30 μM); 127 ± 8 Colonies/plate in [1] (100 μM); 144 ± 14 Colonies/plate in series [1] (400 μM); 148 ± 5 Colonies/plate in series [1] (1000 μM); 115 ± 33 Colonies/plate in [1] (4100 μM); 149 ± 18 Colonies/plate in [1] (7000 μM). Moreover, the “Colonies/plate (mean ± SD) Strain TA100 −S9” value in series [1] (30 μM) is on record as 121 ± 8 Colonies/plate; in [1] (100 μM), 116 ± 22 Colonies/plate; in series [1] (400 μM), 128 Colonies/plate; in series [1] (1000 μM), 101 ± 19 Colonies/plate; in [1] (4100 μM), 134 ± 20 Colonies/plate; in [1] (7000 μM) it was 128 ± 11 Colonies/plate. The “mutagenicity: point mutations (strain TA100)” value in series [1] (concentrations up to 7 mM) is listed as “nor point mutations”. Also, the “pH on dissolution in water” value in series [4] (HCl salt dissolved in water) is ~ 3.0. For the same compound, the “PrC-210 disulfide in solution” value in [4] (pH 5.5, 1 week at room temperature in the dark) is on record as less than 1%; in series [4] (pH 8.0, 1 week at room temperature in the dark) it was more than 98%. Further, the “Colonies/plate (mean ± SD) Strain TA98 −S9” value in series [2] (30 μM) is listed as 43 ± 2 Colonies/plate; in [2] (100 μM) it was 51 ± 6 Colonies/plate; in series [2] (400 μM), 58 ± 14 Colonies/plate; in [2] (1000 μM), 53 ± 3 Colonies/plate; in series [2] (4100 μM) it was 55 ± 5 Colonies/plate; in series [2] (7000 μM) it was 51 ± 5 Colonies/plate. In addition, the “Colonies/plate (mean ± SD) Strain TA98 +S9” value is 64 ± 4 Colonies/plate in [2] (100 μM); 55 ± 3 Colonies/plate in [2] (400 μM); 54 ± 6 Colonies/plate in series [2] (1000 μM); 55 Colonies/plate in series [2] (4100 μM); 65 ± 9 Colonies/plate in series [2] (7000 μM). Besides, in series [2] (concentrations up to 7 mM), the “mutagenicity: frameshift mutations (strain TA98)” value is recorded as “neither frameshift mutations”. For the same compound, the “S-phase fraction of cells after washout” value in series [5] (4.1 mM PrC-210 30 h, then washout and fresh medium 48 h) worked out at 40%. Moreover, the “S-phase fraction of cells” value in series [5] (4.1 mM PrC-210 for 30 h, control 53%) stood at 8%. Further, in series [5] (PrC-210-treated normal human fibroblasts), the “type of cell cycle block” value is given as “G1/S cell cycle block”. Besides, the “dose reduction factor (DRF)” value in the series with ICR mice [6] (i.p. 211 μg/g BW 30 min before increasing radiation doses, survival to day 35) was 1.6. The survival in the series on ICR mice [6] (i.p. 211 μg/g BW (0.5× MTD best fit) 30 min before 8.63 Gy whole-body radiation) is listed as 98%; in the series with ICR mice [6] (i.p. 252 μg/g BW 30 min before 8.75 Gy (otherwise 100% lethal)) it was 100%; in the series with ICR mice [6] (i.p. 252 μg/g BW (0.5× MTD probit) 30 min before 8.63 Gy whole-body radiation), 100%. For the same compound, in [7] (1 to 2 topical applications only), the “protection against radiation dermatitis” value is “much less protection”. In addition, the “prevention of radiation dermatitis” value in [7] (four topical applications over 2 h before irradiation (Fig. 5F)) is on record as 98%. Further, the “prevention of radiation dermatitis, systemic administration” value in [7] (i.p. 200 μg/g BW 30 min before 17.3 Gy) is “complete prevention”. The “radiodermatitis prevention, structure-activity study” value in [7] (topical 370 mM, thiol plus charged alkyl-amine backbone (Fig. 6)) came out at 100%. Further, the “protection against radiation dermatitis, aqueous vehicle” value in series [7] (topical 1500 mM in vehicles containing 75% water) was “still conferred protection”. Moreover, the “prevention of Grade 2–3 radiation dermatitis by increasing topical doses” value in series [7] (topical application to rat skin before irradiation vs vehicle controls) was “completely prevented”. For the same compound, the “prevention of Grade 3 radiation dermatitis, topical” value in series [7] (topical, at or above 370 mM, 17.3 Gy, scored 13 days after irradiation) was “completely prevented”. Also, the “IC100 dose for radiation dermatitis” value in [7] (topical, vehicle 0:95:5 (ethanol:propylene glycol:water)) turned out to be 1500 mM; in series [7] (topical, vehicle 50:30:20 (ethanol:propylene glycol:water)) it was 370 mM. The “i.p. MTD (= i.p. LD10 dose)” value with ICR mice [8] (extrapolated from the best fit curve (Fig. 8A)) is listed as 422 μg/g BW. The compound further had an LD10 dose with ICR mice [8] (i.p., probit analysis of percentage survival data) of 504 μg/g BW. For the same compound, in the series with ICR mice [8] (single i.p. 500 μg/g BW), the toxic response result is “either a transient response in which the mice are sleepy but then rebound over several hours and survive, or they die within 1–2 h”. For the same compound, the lethality in the series with ICR mice [8] (single i.p. 700 μg/g BW, severe muscle spasm then death within min) is 100%. Moreover, the hypotension response result in the series on rat is listed as “nor hypotension response”. The “IC70 dose, inhibition of cell growth” value in [9] stood at 4.1 mM. Besides, the oral activity entry in series [10] is reported as “active when taken orally”. Further, the “p21 protein level in nuclear extracts” value in the series on p21 is “significantly elevated”. Further, the “protection of supercoiled plasmid DNA against ROS-induced nicking” value in [11] is recorded as “complete protection”.
As for `NCCCNCCSP(=O)(O)O` [amifostine], the systemic toxicities entry with humans (human amifostine use) is recorded as “significant systemic toxicities (nausea/emesis, hypotension/fainting)”. Moreover, the “efficacy when applied topically to skin or mucosa” value with humans (humans) is recorded as “has not been effective”. In addition, in the series on rat, the hypotension response entry is “elicits both responses”. The “dose reduction factor (DRF)” value in the series with ICR mice [12] is given as 1.6. Further, the retch/vomit response result in the series on ferret is reported as “elicits both responses”.

(Values after paper PMC3409661 (Radiation research, 2012).)
